The source of these data is patent US20210047297A1, “4-(3-AMINO-6-FLUORO-1H-INDAZOL-5-YL)-1,2,6-TRIMETHYL-1,4-DIHYDROPYRIDINE-3,5-DIC ARBONITRILE COMPOUNDS FOR TREATING HYPERPROLIFERATIVE DISORDERS” (Bayer Pharma Aktiengesellschaft, priority 2018, published 2021).

For the assay, the target named is T1, GST-AMPKα2/ß1/γ1 complex (full-length human AMPKα2) (Homo sapiens, UniProt P54619+P54646+Q9Y478).
T1 construct: purchased Carna Biosciences 02-114; host or cells: baculovirus expression system
T1 sequence (P54646 whole entry): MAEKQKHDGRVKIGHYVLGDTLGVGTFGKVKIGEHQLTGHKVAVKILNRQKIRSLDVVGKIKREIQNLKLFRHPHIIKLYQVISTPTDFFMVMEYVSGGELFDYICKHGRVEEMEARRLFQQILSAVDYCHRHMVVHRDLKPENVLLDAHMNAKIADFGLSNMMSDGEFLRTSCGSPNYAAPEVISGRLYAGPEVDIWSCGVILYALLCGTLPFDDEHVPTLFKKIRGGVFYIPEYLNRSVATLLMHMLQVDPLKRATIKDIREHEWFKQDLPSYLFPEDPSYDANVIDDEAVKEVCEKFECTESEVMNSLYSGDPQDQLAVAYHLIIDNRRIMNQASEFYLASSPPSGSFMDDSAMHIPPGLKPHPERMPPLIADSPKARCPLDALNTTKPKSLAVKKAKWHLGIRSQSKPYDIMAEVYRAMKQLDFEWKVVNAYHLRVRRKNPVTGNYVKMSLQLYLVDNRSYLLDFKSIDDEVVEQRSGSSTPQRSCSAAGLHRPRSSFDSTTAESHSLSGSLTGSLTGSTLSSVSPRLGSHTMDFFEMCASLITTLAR
T1 sequence (Q9Y478 whole entry partner): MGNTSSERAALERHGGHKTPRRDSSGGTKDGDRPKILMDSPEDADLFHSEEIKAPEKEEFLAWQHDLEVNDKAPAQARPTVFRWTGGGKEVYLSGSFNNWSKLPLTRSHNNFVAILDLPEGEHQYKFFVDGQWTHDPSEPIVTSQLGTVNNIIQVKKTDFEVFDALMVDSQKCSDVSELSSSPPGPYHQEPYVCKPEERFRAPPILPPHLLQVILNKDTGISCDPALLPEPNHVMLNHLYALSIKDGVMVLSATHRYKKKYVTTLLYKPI
T1 sequence (P54619 whole entry partner): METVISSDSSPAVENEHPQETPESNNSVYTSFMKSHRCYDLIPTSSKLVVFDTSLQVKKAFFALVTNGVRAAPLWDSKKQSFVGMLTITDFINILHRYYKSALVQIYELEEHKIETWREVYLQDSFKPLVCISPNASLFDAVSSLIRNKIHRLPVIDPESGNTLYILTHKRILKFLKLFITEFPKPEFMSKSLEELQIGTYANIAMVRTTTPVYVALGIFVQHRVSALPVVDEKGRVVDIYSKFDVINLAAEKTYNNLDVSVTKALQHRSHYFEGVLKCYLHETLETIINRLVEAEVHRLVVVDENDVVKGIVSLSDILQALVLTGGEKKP
In words: AMPK high ATP assay (TR-FRET-based AMPK activity inhibition assay). In kind it is biochemical. The conditions noted are these: ATP concentration of 1 mM; median; read-out: AMPK high ATP assay IC50 [mol/l] (median). As for the experimental part:
AMPK inhibitory activity of compounds of the present invention at an ATP concentration of 1 mM was quantified employing the TR-FRET-based AMPK activity inhibition assay as described in the following paragraphs.
Recombinant fusion protein of N-terminal Glutathion-S-Transferase (GST) and full-length human AMPKα2 [1-552(end) amino acids of accession number NP_006243.2] co-expressed with GST-PRKAB1 [1-270(end) amino acids of accession number NP_006244.2] and PRKAG1 [1-331(end) amino acids of accession number NP_002724.1] using a baculovirus expression system, purified as GST-AMPKα2/ß1/γ1 complex by using glutathione sepharose chromatography, activated with His-tagged CaMKK1 and subsequently purified by using glutathione sepharose chromatography, was purchased from Carna Biosciences (product number 02-114) and used as kinase. As substrate for the kinase reaction biotinylated peptide biotin-Ahx-HMRSAMSFAEPG (C-terminus in amide form) was used which can be purchased e.g. form the company Biosyntan (Berlin-Buch, Germany). For the assay 50 nl of a 100 fold concentrated solution of the test compound in DMSO was pipetted into either a black low volume 384 well microtiter plate or a black 1536 well microtiter plate (both Greiner Bio-One, Frickenhausen, Germany), 2 μl of a solution of GST-AMPKα2/ß1/γ1 in aqueous assay buffer [50 mM Hepes pH 7.5, 10 mM MgCl2, 5 mM β-glycerophosphate, 2.5 mM dithiothreitol (DTT), 0.5 mM EGTA, 0.01% (w/v) bovine γ-globulin (Sigma-Aldrich, #G5009), 0.01% (v/v) Triton X-100 (Sigma-Aldrich, #T9284)] were added and the mixture was incubated for 15 min at 22° C. to allow pre-binding of the test compounds to the enzyme before the start of the kinase reaction. Then the kinase reaction was started by the addition of 3 μl of a solution of adenosine-tri-phosphate (ATP, 1.67 mM=>final conc. in the 5 μl assay volume is 1 mM), adenosine-mono-phosphate (AMP, 3.33 μM=>final conc. in the 5 μl assay volume is 2 μM), and substrate (0.83 μM=>final conc. in the 5 μl assay volume is 0.5 μM) in assay buffer and the resulting mixture was incubated for a reaction time of 30 min at 22° C. The concentration of GST-AMPK α2/ß1/γ1 was adjusted depending of the activity of the enzyme lot and was chosen appropriate to have the assay in the linear range, a typical concentration was 0.08 nM. The reaction was stopped by the addition of 3 μl of a solution of TR-FRET detection reagents (0.2 μM streptavidine-XL665 [Cisbio Bioassays, Codolet, France] and 3.33 nM anti-phosho-Serine antibody [Merck Millipore, “STK antibody”, cat. #35-002] and 3.33 nM anti mouse IgG-Tb cryptate, a Terbium-cryptate labelled anti-mouse IgG antibody [Cisbio Bioassays, Codolet, France] in an aqueous EDTA-solution (166.7 mM EDTA, 0.06 (w/v) bovine serum albumin in 50 mM HEPES pH 7.5).
The resulting mixture was incubated 1 h at 22° C. to allow the formation of complex between the phosphorylated biotinylated peptide and the detection reagents. Subsequently the amount of phosphorylated substrate was evaluated by measurement of the resonance energy transfer from the Tb-cryptate to the streptavidine-XL665. Therefore, the fluorescence emissions at 620 nm and 665 nm after excitation at 350 nm was measured in a TR-FRET reader, e.g. a Pherastar FS (BMG Labtechnologies, Offenburg, Germany) or a Viewlux (Perkin-Elmer). The ratio of the emissions at 665 nm and at […] was taken as the measure for the amount of phosphorylated substrate. The data were normalised (enzyme reaction without inhibitor=0 inhibition, all other assay components but no enzyme=100% inhibition).
(TR-FRET usually uses a lanthanide donor and a delayed reading to cut background.)
In the case of `CC1=C(C#N)C(c2cc3c(NC(=O)C(C)c4cccnc4)n[nH]c3c(C)c2F)C(C#N)=C(C)N1C` (racemic) [Example 21, (rac)-N-[5-(3,5-dicyano-1,2,6-trimethyl-1,4-dihydropyridin-4-yl)-6-fluoro-7-methyl-1H-indazol-3-yl]-2-(pyridin-3-yl)propanamide], the IC50 is 84 nM.

In the case of `CCn1nc(C)cc1C(=O)Nc1n[nH]c2c(I)c(F)c(C3C(C#N)=C(C)N(C)C(C)=C3C#N)cc12` [Example 1, N-[5-(3,5-dicyano-1,2,6-trimethyl-1,4-dihydropyridin-4-yl)-6-fluoro-7-iodo-1H-indazol-3-yl]-1-ethyl-3-methyl-1H-pyrazole-5-carboxamide], the IC50 came to 62.6 nM.

Turning to `CC1=C(C#N)C(c2cc3c(NC(=O)c4ccccc4Cl)n[nH]c3c(I)c2F)C(C#N)=C(C)N1C` [Example 2, 2-chloro-N-[5-(3,5-dicyano-1,2,6-trimethyl-1,4-dihydropyridin-4-yl)-6-fluoro-7-iodo-1H-indazol-3-yl]benzamide], the IC50 worked out at 13 nM.

On to `CC1=C(C#N)C(c2cc3c(NC(=O)c4cn(C)nc4C(F)(F)F)n[nH]c3c(I)c2F)C(C#N)=C(C)N1C` [Example 3, N-[5-(3,5-dicyano-1,2,6-trimethyl-1,4-dihydropyridin-4-yl)-6-fluoro-7-iodo-1H-indazol-3-yl]-1-methyl-3-(trifluoromethyl)-1H-pyrazole-4-carboxamide], for which the IC50 was 54.3 nM.

On to `CC1=C(C#N)C(c2cc3c(NC(=O)c4ccc(OCCN5CCCC5)cc4Cl)n[nH]c3c(I)c2F)C(C#N)=C(C)N1C` [Example 4, 2-chloro-N-[5-(3,5-dicyano-1,2,6-trimethyl-1,4-dihydropyridin-4-yl)-6-fluoro-7-iodo-1H-indazol-3-yl]-4-[2-(pyrrolidin-1-yl)ethoxy]benzamide], for which the IC50 was 2.7 nM.

Take `CCn1nc(C)cc1C(=O)Nc1n[nH]c2c(C)c(F)c(C3C(C#N)=C(C)N(C)C(C)=C3C#N)cc12` [Example 5, N-[5-(3,5-dicyano-1,2,6-trimethyl-1,4-dihydropyridin-4-yl)-6-fluoro-7-methyl-1H-indazol-3-yl]-1-ethyl-3-methyl-1H-pyrazole-5-carboxamide]: the IC50 came out at 3.74 nM.

For the molecule `CC1=C(C#N)C(c2cc3c(NC(=O)c4ccccc4Cl)n[nH]c3c(C)c2F)C(C#N)=C(C)N1C` [Example 6, 2-chloro-N-[5-(3,5-dicyano-1,2,6-trimethyl-1,4-dihydropyridin-4-yl)-6-fluoro-7-methyl-1H-indazol-3-yl]benzamide], the IC50 was 3.65 nM.

For the molecule `CC1=C(C#N)C(c2cc3c(NC(=O)c4c(F)cccc4F)n[nH]c3c(C)c2F)C(C#N)=C(C)N1C` [Example 7, N-[5-(3,5-dicyano-1,2,6-trimethyl-1,4-dihydropyridin-4-yl)-6-fluoro-7-methyl-1H-indazol-3-yl]-2,6-difluorobenzamide], the IC50 amounted to 19.6 nM.

`CCc1ccccc1C(=O)Nc1n[nH]c2c(C)c(F)c(C3C(C#N)=C(C)N(C)C(C)=C3C#N)cc12` [Example 8, N-[5-(3,5-dicyano-1,2,6-trimethyl-1,4-dihydropyridin-4-yl)-6-fluoro-7-methyl-1H-indazol-3-yl]-2-ethylbenzamide]: the IC50 was 15.1 nM.

Consider `CC1=C(C#N)C(c2cc3c(NC(=O)c4cn(C)nc4C(F)(F)F)n[nH]c3c(C)c2F)C(C#N)=C(C)N1C` [Example 9, N-[5-(3,5-dicyano-1,2,6-trimethyl-1,4-dihydropyridin-4-yl)-6-fluoro-7-methyl-1H-indazol-3-yl]-1-methyl-3-(trifluoromethyl)-1H-pyrazole-4-carboxamide], for which the IC50 came to 12.2 nM.

Regarding `CC1=C(C#N)C(c2cc3c(NC(=O)c4cc(F)ccc4C(F)(F)F)n[nH]c3c(C)c2F)C(C#N)=C(C)N1C` [Example 10, N-[5-(3,5-dicyano-1,2,6-trimethyl-1,4-dihydropyridin-4-yl)-6-fluoro-7-methyl-1H-indazol-3-yl]-5-fluoro-2-(trifluoromethyl)benzamide], the IC50 stood at 26.2 nM.

`CC1=C(C#N)C(c2cc3c(NC(=O)c4c(F)cccc4Cl)n[nH]c3c(C)c2F)C(C#N)=C(C)N1C` [Example 11, 2-chloro-N-[5-(3,5-dicyano-1,2,6-trimethyl-1,4-dihydropyridin-4-yl)-6-fluoro-7-methyl-1H-indazol-3-yl]-6-fluorobenzamide]: the IC50 was found to be 8.9 nM.

For `CCn1cc(C(=O)Nc2n[nH]c3c(C)c(F)c(C4C(C#N)=C(C)N(C)C(C)=C4C#N)cc23)c(C)n1` [Example 12, N-[5-(3,5-dicyano-1,2,6-trimethyl-1,4-dihydropyridin-4-yl)-6-fluoro-7-methyl-1H-indazol-3-yl]-1-ethyl-3-methyl-1H-pyrazole-4-carboxamide], the IC50 is 15.7 nM.

With `CC1=C(C#N)C(c2cc3c(NC(=O)c4ccc(OCCN5CCCC5)cc4)n[nH]c3c(C)c2F)C(C#N)=C(C)N1C` [Example 13, N-[5-(3,5-dicyano-1,2,6-trimethyl-1,4-dihydropyridin-4-yl)-6-fluoro-7-methyl-1H-indazol-3-yl]-4-[2-(pyrrolidin-1-yl)ethoxy]benzamide], the IC50 stood at 13.4 nM.

Turning to `CC1=C(C#N)C(c2cc3c(NC(=O)Cc4ccc(C)nc4)n[nH]c3c(C)c2F)C(C#N)=C(C)N1C` [Example 14, N-[5-(3,5-dicyano-1,2,6-trimethyl-1,4-dihydropyridin-4-yl)-6-fluoro-7-methyl-1H-indazol-3-yl]-2-(6-methylpyridin-3-yl)acetamide], the IC50 was 21.5 nM.

`COCCn1cc(C(=O)Nc2n[nH]c3c(C)c(F)c(C4C(C#N)=C(C)N(C)C(C)=C4C#N)cc23)c(C(F)(F)F)n1` [Example 15, N-[5-(3,5-dicyano-1,2,6-trimethyl-1,4-dihydropyridin-4-yl)-6-fluoro-7-methyl-1H-indazol-3-yl]-1-(2-methoxyethyl)-3-(trifluoromethyl)-1H-pyrazole-4-carboxamide]: the IC50 came to 7.76 nM.

`CC1=C(C#N)C(c2cc3c(NC(=O)c4cn(CCN5CCCC5)nc4C(F)(F)F)n[nH]c3c(C)c2F)C(C#N)=C(C)N1C` [Example 16, N-[5-(3,5-dicyano-1,2,6-trimethyl-1,4-dihydropyridin-4-yl)-6-fluoro-7-methyl-1H-indazol-3-yl]-1-[2-(pyrrolidin-1-yl)ethyl]-3-(trifluoromethyl)-1H-pyrazole-4-carboxamide]: the IC50 stood at 5.71 nM.

Take `CC1=C(C#N)C(c2cc3c(NC(=O)c4cn(CC(C)(C)O)nc4C(F)(F)F)n[nH]c3c(C)c2F)C(C#N)=C(C)N1C` [Example 17, N-[5-(3,5-dicyano-1,2,6-trimethyl-1,4-dihydropyridin-4-yl)-6-fluoro-7-methyl-1H-indazol-3-yl]-1-(2-hydroxy-2-methylpropyl)-3-(trifluoromethyl)-1H-pyrazole-4-carboxamide]: the IC50 was 7.95 nM.

Consider `CC1=C(C#N)C(c2cc3c(NC(=O)c4cnn(CC(C)(C)O)c4C(F)(F)F)n[nH]c3c(C)c2F)C(C#N)=C(C)N1C` [Example 18, N-[5-(3,5-dicyano-1,2,6-trimethyl-1,4-dihydropyridin-4-yl)-6-fluoro-7-methyl-1H-indazol-3-yl]-1-(2-hydroxy-2-methylpropyl)-5-(trifluoromethyl)-1H-pyrazole-4-carboxamide], for which the IC50 was determined as 45.4 nM.

Take `CC1=C(C#N)C(c2cc3c(NC(=O)c4cnn(CCN5CCCC5)c4C(F)(F)F)n[nH]c3c(C)c2F)C(C#N)=C(C)N1C` [Example 19, N-[5-(3,5-dicyano-1,2,6-trimethyl-1,4-dihydropyridin-4-yl)-6-fluoro-7-methyl-1H-indazol-3-yl]-1-[2-(pyrrolidin-1-yl)ethyl]-5-(trifluoromethyl)-1H-pyrazole-4-carboxamide]: the IC50 turned out to be 37.6 nM.
